Test [1] has as its system early embryos of the inbred mouse B6J strain. Nature of the test: Recovery of inbred mouse early embryos frozen and thawed multiple times (Treatment Example 15). The format is cell-based. The settings on record: frozen TWICE. From the text: Then, in the same manner as in Treatment Example 9 according to Example 1, it was investigated whether or not the early embryos of the inbred mouse B6J strain, not the normal mice, could recover after frozen and thawed at multiple times.

For test [2], the system named is two-cell frozen embryo of a heterologous inbred SPR2 mouse. Nature of the test: ES cell establishment from SPR2 frozen embryos (Treatment Example 3). In kind it is cell-based, Mus spretus. The settings on record: 5 SPR2 frozen embryos thawed and cultured to blastocyst in Y-27632 medium. Here is the method:
5. Then, if necessary, the culture was continued in the Y-27632-free mWM medium to establish ES cells.
After thawing a two-cell frozen embryo of a heterologous inbred SPR2 mouse, it was cultured to a blastocyst in the temporary treatment medium containing Y-27632, and an attempt was made to establish ES cells. As a result, ES cells could be efficiently established (5 frozen embryos, 2 strains established). On the other hand, when Y-27632 was not added, no individual production and ES cells were established.

The subject of a further test is C57BL/6J blastocysts. Kind of test: Developmental efficiency of frozen embryo transfer (Treatment Example 18). The settings on record: C57BL/6J freeze-thawed blastocysts, 38 embryos transferred. The format is cell-based, mouse. Here is the method:
Specifically, in the blastocysts of C57BL/6J mice, a freeze-thaw manipulation was performed by using the above-mentioned temporary treatment medium by using Y-27632 or the normal medium as control. Further, an average of 20 blastocysts per recipient (MCH mouse) was transplanted into the uterus. The newborn was delivered by Caesarean section (CS), and the number of implantation marks and the number of newborns were confirmed. Weaning mice were suckled by foster parents, the number of weaning mice was confirmed, and the weaning survival rate was calculated. In addition, the embryo medium was used based on the mWM medium.

Structures are written as SMILES.

Take `C[C@@H](N)[C@H]1CC[C@H](C(=O)Nc2ccncc2)CC1` [Y-27632, trans-4-[(1R)-1-Aminoethyl]-N-4-pyrid inylcyclohexanecarboxamide]: in test [1], the “NUMBER OF RECOVERIES” value is recorded as 24/26 and the recoveries % is 92%. The “ES cell strains established” value in test [2] is 2 strains. Moreover, in the test with C57BL/6J blastocysts, the Implantation mark stood at 13, the “Weaning (number of weaning mice)” value is 10 and the Weaning survival rate is given as 100%. Besides, in the test on C57BL/6J blastocysts (Caesarean section), the “Pups (CS)” value came to 10.

The values above are taken from US20230220331A1, “TEMPORARY TREATMENT MEDIUM, TREATMENT KIT, EMBRYOGENESIS ARREST INHIBITOR, EMBRYOGENESIS ARREST INHIBITORY METHOD, DEVELOPMENTAL ENGINEERING PRODUCT PREPARATION METHOD, TRANSPLANTATION METHOD, THERAPEUTIC METHOD, AND DEVELOPMENTAL ENGINEERING PRODUCT” (priority 2020, published 2023).
